Measured values taken from patent US9145399B2, “Substituted bicyclic triazole derivatives as gamma secretase modulators” (Janssen Pharmaceuticals, Inc., priority 2010, dated 2015).
pIC50: −log10 of the molar value.

Columns and labels:
Aβ42 [1] = experiment: Screening for γ-secretase-modulating activity in SKNBE2 cells carrying APP 695 wild type: Aβ42 in cell supernatant (Alphalisa); assay type: cell-based; conditions: Homo sapiens, SKNBE2, SKNBE2 cells carrying APP 695 wild type, overnight incubation
Method in brief: (§1)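 SKNBE2 cells expressing wild-type APP695 were incubated overnight at 37° C with test compound at several concentrations. Aβ42 and Aβtotal in supernatant were measured by AlphaLISA sandwich immunoassays. IC50 came from 4-parameter non-linear fits of percent of compound-free control versus log concentration.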

Aβtotal [2] = experiment: Screening for γ-secretase-modulating activity in SKNBE2 cells carrying APP 695 wild type: Aβtotal in cell supernatant (Alphalisa); assay type: cell-based; conditions: Homo sapiens, overnight incubation
Method in brief: as §1

Aβ42 [3] = experiment: In vivo efficacy: Aβ42 lowering in brain of non-transgenic mice after single oral dose (ELISA); set-up: species or system mouse; conditions: Mus musculus; dose 30 mg/kg oral dosing; soluble brain fraction, animals sacrificed after 4 h; untreated animals (Ctrl) set at 100; read-out: Aβ42 (% vs Ctrl) _Mean
From the text: (§2) To determine whether acute administration of an Aβ42 lowering agent would reduce Aβ42 levels in vivo, non-transgenic rodents, e.g. mice or rats were used. Animals treated with the Aβ42 lowering agent were examined and compared to those untreated or treated with vehicle and brain levels of soluble Aβ42 and total Aβ were quantitated by standard techniques, for example, using ELISA. Treatment periods varied from hours (h) to days and were adjusted based on the results of the Aβ42 lowering once a time course of onset of effect could be established.
(§3) A typical protocol for measuring Aβ42 lowering in vivo is shown but it is only one of many variations that could be used to optimize the levels of detectable Aβ. For example, Aβ42 lowering compounds were formulated in 20% of Captisol® (a sulfobutyl ether of β-cyclodextrin) in water or 20% hydroxypropyl β cyclodextrin. The Aβ42 lowering agents were administered as a single oral dose or by any acceptable route of administration to overnight fasted animals. After 4 h, the animals were sacrificed and Aβ42 levels were analysed.
(§4) Blood was collected by decapitation and exsanguinations in EDTA-treated collection tubes. Blood was centrifuged at 1900 g for 10 minutes (min) at 4° C. and the plasma recovered and flash frozen for later analysis. The brain was removed from the cranium and hindbrain. The cerebellum was removed and the left and right hemisphere were separated. The left hemisphere was stored at −18° C. for quantitative analysis of test compound levels. The right hemisphere was rinsed with phosphate-buffered saline (PBS) buffer and immediately frozen on dry ice and stored at −80° C. until homogenization for biochemical assays.
(§5) Mouse brains from non-transgenic animals were resuspended in 8 volumes of 0.4% DEA (diethylamine)/50 mM NaCl containing protease inhibitors (Roche-11873580001 or 04693159001) per gram of tissue, e.g. for 0.158 g brain, add 1.264 ml of 0.4% DEA. All samples were homogenized in the FastPrep-24 system (MP Biomedicals) using lysing matrix D (MPBio #6913-100) at 6 m/s for 20 seconds. Homogenates were centrifuged at 221.300×g for 50 min. The resulting high speed supernatants were then transferred to fresh eppendorf tubes. Nine parts of supernatant were neutralized with 1 part 0.5 M Tris-HCl pH 6.8 and used to quantify Aβtotal and Aβ42.
(§6) To quantify the amount of Aβtotal and Aβ42 in the soluble fraction of the brain homogenates, Enzyme-Linked-Immunosorbent-Assays were used. Briefly, the standards (a dilution of synthetic Aβ1-40 and Aβ1-42, Bachem) were prepared in 1.5 ml Eppendorf tube in Ultraculture, with final concentrations ranging from 10000 to 0.3 pg/ml. The samples and standards were co-incubated with HRPO-labelled N-terminal antibody for Aβ42 detection and with the biotinylated mid-domain antibody 4G8 for Aβtotal detection. 50 μl of conjugate/sample or conjugate/standards mixtures were then added to the antibody-coated plate (the capture antibodies selectively recognize the C-terminal end of Aβ42, antibody JRF/cAβ42/26, for Aβ42 detection and the N-terminus of Aβ, antibody JRF/rAβ/2, for Aβtotal detection). The plate was allowed to incubate overnight at 4° C. in order to allow formation of the antibody-amyloid complex. Following this incubation and subsequent wash steps the ELISA for Aβ42 quantification was finished by addition of Quanta Blu fluorogenic peroxidase substrate according to the manufacturer's instructions (Pierce Corp., Rockford, Il). A reading was performed after 10 to 15 min (excitation 320 nm/emission 420 nm).
In this model at least 20% Aβ42 lowering compared to untreated animals would be advantageous.
The results are shown in Table 4 (dose 30 mg/kg oral dosing) (value for untreated animals as control (Ctrl) was set at 100): […]

Aβtotal [4] = experiment: In vivo efficacy: Aβtotal in brain of non-transgenic mice after single oral dose (ELISA); set-up: species or system mouse; conditions: Mus musculus; dose 30 mg/kg oral dosing; soluble brain fraction, animals sacrificed after 4 h; untreated animals (Ctrl) set at 100; read-out: Aβtotal (% vs Ctrl)_Mean
From the text: as §2, §3, §4, §5, §6
For Aβtotal detection, a Streptavidine-Peroxidase-Conjugate was added, followed 60 min later by an additional wash step and addition of Quanta Blu fluorogenic peroxidase substrate according to the manufacturer's instructions (Pierce Corp., Rockford, Ill). A reading was performed after 10 to 15 min (excitation 320 nm/emission 420 nm). […]

pIC50 (Aβ42 [1])	pIC50 (Aβtotal [2])	melting point [°C]	SMILES	response vs control in vivo at 30 mg/kg (Aβ42 [3]) [%]	response vs control in vivo at 30 mg/kg (Aβtotal [4]) [%]
7.46	5.04	–	COc1cc(Nc2nc3n(n2)CCCC3c2ccccc2Cl)ccc1-c1ccnc(C)c1 (racemic) [Compound 66, 8-(2-chlorophenyl)-5,6,7,8-tetrahydro-N-[3-methoxy-4-(2-methyl-4-pyridinyl)phenyl]-[1,2,4]triazolo[1,5-a]pyridin-2-amine]	54	92
8.05	5.11	–	COc1cc(Nc2nc3n(n2)CCN(C)C3c2ccccc2C(F)(F)F)ccc1-n1cnc(C)c1 (centres unmarked) [Compound 13, 5,6,7,8-tetrahydro-N-[3-methoxy-4-(4-methyl-1H-imidazol-1-yl)phenyl]-7-methyl-8-[2-(trifluoromethyl)phenyl]-[1,2,4]triazolo[1,5-a]pyrazin-2-amine]	93	100
7.18	< 5.00	–	COc1cc(Nc2nc3n(n2)CCN(C(C)=O)C3c2ccccc2C(F)(F)F)ccc1-n1cnc(C)c1 (centres unmarked) [Compound 14, 7-acetyl-5,6,7,8-tetrahydro-N-[3-methoxy-4-(4-methyl-1H-imidazol-1-yl)phenyl]-8-[2-(trifluoromethyl)phenyl]-[1,2,4]triazolo[1,5-a]pyrazin-2-amine]	101	119
7.64	< 5.00	–	Cc1cc(-c2ccc(Nc3nc4n(n3)CCCC4c3ccccc3C(F)(F)F)cc2)ccn1 (centres unmarked) [Compound 42, 5,6,7,8-tetrahydro-N-[4-(2-methyl-4-pyridinyl)phenyl]-8-[2-(trifluoromethyl)phenyl]-[1,2,4]triazolo[1,5-a]pyridin-2-amine]	58	83
7.80	5.15	–	COc1cc(Nc2nc3n(n2)CCCC3c2ccccc2C(F)(F)F)ccc1-c1ccnc(C)c1 (centres unmarked) [Compound 43, 5,6,7,8-tetrahydro-N-[3-methoxy-4-(2-methyl-4-pyridinyl)phenyl]-8-[2-(trifluoromethyl)phenyl]-[1,2,4]triazolo[1,5-a]pyridin-2-amine]	71	87
5.28	< 5.00	–	FC(F)(F)c1ccccc1C1CCCn2nc(Nc3ccc(-c4cccnc4)cc3)nc21 (centres unmarked) [Compound 46, 5,6,7,8-tetrahydro-N-[4-(3-pyridinyl)phenyl]-8-[2-(trifluoromethyl)phenyl]-[1,2,4]triazolo[1,5-a]pyridin-2-amine]	61	98
6.74	≤ 5.00	–	COc1cc(Nc2nc3n(n2)C(c2ccccc2C(F)(F)F)CCC3)ccc1-c1ccnc(C)c1 (centres unmarked) [Compound 52, 5,6,7,8-tetrahydro-N-[3-methoxy-4-(2-methyl-4-pyridinyl)phenyl]-5-[2-(trifluoromethyl)phenyl]-[1,2,4]triazolo[1,5-a]pyridin-2-amine 1.8 HCl3H2O]	45	112
7.28	< 5.00	–	COc1cc(Nc2nc3n(n2)CCOC3c2ccccc2C(F)(F)F)ccc1-c1ccnc(C)c1 (centres unmarked) [Compound 65, 5,6-dihydro-N-[3-methoxy-4-(2-methyl-4-pyridinyl)phenyl]-8-[2-(trifluoromethyl)phenyl]-8H-[1,2,4]triazolo[5,1-c][1,4]oxazin-2-amine]	64	101
7.49	< 4.82	147.4	COc1cc(C2CCCn3nc(Nc4ccc(-c5ccnc(C)c5)c(OC)c4)nc32)ccc1F (centres unmarked) [Compound 107, 8-(4-fluoro-3-methoxyphenyl)-5,6,7,8-tetrahydro-N-[3-methoxy-4-(2-methyl-4-pyridinyl)phenyl]-[1,2,4]triazolo[1,5-a]pyridin-2-amine]	–	–
7.30	< 5.00	174	COc1cc(Nc2nc3n(n2)CCCC3c2c(F)cccc2Cl)ccc1-c1ccnc(C)c1 (centres unmarked) [Compound 110, 8-(2-chloro-6-fluorophenyl)-5,6,7,8-tetrahydro-N-[3-methoxy-4-(2-methyl-4-pyridinyl)phenyl]-[1,2,4]triazolo[1,5-a]pyridin-2-amine]	–	–
7.39	< 5.00	194.4	Cc1cc(-c2ccc(Nc3nc4n(n3)CCCC4c3cc(C(F)(F)F)ccc3F)cc2)ccn1 (centres unmarked) [Compound 114, 8-[2-fluoro-5-(trifluoromethyl)phenyl]-5,6,7,8-tetrahydro-N-[4-(2-methyl-4-pyridinyl)phenyl]-[1,2,4]triazolo[1,5-a]pyridin-2-amine]	–	–
7.15	< 5.00	234.4	Cc1cc(-c2ccc(Nc3nc4n(n3)CCCC4c3c(F)cccc3Cl)cc2)ccn1 (centres unmarked) [Compound 116, 8-(2-chloro-6-fluorophenyl)-5,6,7,8-tetrahydro-N-[4-(2-methyl-4-pyridinyl)phenyl]-[1,2,4]triazolo[1,5-a]pyridin-2-amine]	–	–
7.51	5.15	146.8	COc1cc(Nc2nc3n(n2)CCCC3c2cc(C(F)(F)F)ccc2C)ccc1-c1ccnc(C)c1 (centres unmarked) [Compound 151, 5,6,7,8-tetrahydro-N-[3-methoxy-4-(2-methyl-4-pyridinyl)phenyl]-8-[2-methyl-5-(trifluoromethyl)phenyl]-[1,2,4]triazolo[1,5-a]pyridin-2-amine]	–	–
7.36	< 5.00	173.1	COc1cc(Nc2nc3n(n2)CCCC3c2cc(C(F)(F)F)ccc2F)ccc1-c1ccnc(C)c1 (centres unmarked) [Compound 182, 8-[2-fluoro-5-(trifluoromethyl)phenyl]-5,6,7,8-tetrahydro-N-[3-methoxy-4-(2-methyl-4-pyridinyl)phenyl]-[1,2,4]triazolo[1,5-a]pyridin-2-amine]	–	–
7.39	< 5.00	204.6	COc1ccc(F)c(C2CCCn3nc(Nc4ccc(-c5ccnc(C)c5)cc4)nc32)c1 (centres unmarked) [Compound 183, 8-(2-fluoro-5-methoxyphenyl)-5,6,7,8-tetrahydro-N-[4-(2-methyl-4-pyridinyl)phenyl]-[1,2,4]triazolo[1,5-a]pyridin-2-amine]	–	–
7.64	< 5.00	221.5	COc1ccc(F)c(C2CCCn3nc(Nc4ccc(-c5ccnc(C)c5)c(F)c4)nc32)c1 (centres unmarked) [Compound 184, 8-(2-fluoro-5-methoxyphenyl)-N-[3-fluoro-4-(2-methyl-4-pyridinyl)phenyl]-5,6,7,8-tetrahydro-[1,2,4]triazolo[1,5-a]pyridin-2-amine]	–	–
